In the SangsterLogP compilation:

Test: method code SF, from DOI: 10.1002/em.2850190107, PMID: 1732103

Point of comparison: Nc1ccc(Oc2ccc(N)cc2)cc1, logP 1.36. Against it:
- Nc1cccc(C(F)(F)F)c1 — higher, 2.29
- Nc1cc2ccccc2c2ccccc12 — higher, 3.56
- COc1cc(-c2ccc(N)c(OC)c2)ccc1N — higher, 1.81
- COc1ccc(N)c(C)c1 — within 0.2 log units, 1.23
- Nc1cccc2c1Cc1ccccc1-2 — higher, 3.18
- Nc1cc(Cl)ccc1O — higher, 1.81
- Nc1ccc2c(c1)Cc1ccccc1-2 — higher, 3.14
- Cc1ccc(N)c(N)c1 — lower, 0.66
- Nc1ccccc1-c1ccccc1N — within 0.2 log units, 1.34
- Nc1ccc2c3c(cccc13)-c1ccccc1-2 — higher, 4.2
- Cc1ccc(C)c(N)c1 — higher, 1.83
- Cc1ccc(N)cc1N — lower, 0.14
- Nc1cccc2cc3ccccc3cc12 — higher, 3.69
- Nc1ccc2c(c1)Cc1cc(Br)ccc1-2 — higher, 3.92
